Source: patent US20100298302A1, “NOVEL PROTEIN KINASE MODULATORS” (priority 2009, published 2010)
pIC50: −log10 of the molar value. Like-named read-outs stand apart in the source and are kept apart here.

How the values were obtained:
[1] = target: recombinant PIM-1 (Homo sapiens, UniProt P11309); experiment: PIM-1 kinase assay; type: biochemical; conditions: for inhibition at 0.5 µM: 500 nM compound, read-out: PIM1: % inh 500 nM
Description: The following procedure was used to assay the PIM-1 kinase activity of compounds of the invention. Other methods for assaying PIM-1 and other PIM kinases, as well as methods to assay for activity against various kinases known in the art.
In a final reaction volume of 50 ul, recombinant PIM-1 (1 ng) was incubated with 12 mM MOPS pH 7.0, 0.4 mM EDTA, glycerol 1%, brij 35 0.002%, 2-mercaptoethanol 0.02%, BSA 0.2 mg/ml, 100 uM KKRNRTLTK, 10 mM MgAcetate, 15 uM ATP, [γ-^33P-ATP] (specific activity approx. 500 cpm/pmol), DMSO 4% and test inhibitor compound at the required concentration. The reaction was initiated by the addition of the Magnesium ATP mixture. After 40 min incubation at 23° C., the reactions were quenched by the addition of 100 ul 0.75% Phosphoric acid, and the labeled peptide collected by filtration through a phosphocellulose filter plate. The plate was washed 4 times with 0.075% phosphoric acid (100 ul per well) and then, after the addition of scintillation fluid (20 ul per well), the counts were measured by a scintillation counter.

[2] = test system: K-562 human chronic myelogenous leukemia (CML) cells; experiment: Alamar Blue cell proliferation assay, K-562; type: cell-based
Description: (§1) A representative cell-proliferation assay protocol using Alamar Blue dye (stored at 4° C., use 20 ul per well) is described hereafter.
(§2) a. Split and trypsinize cells.
(§3) b. Count cells using hemocytometer.
(§4) c. Plate 4,000-5,000 cells per well in 100 μl of medium and seed into a 96-well plate according to the following plate layout. Add cell culture medium only to wells B10 to B12. Wells B1 to B9 have cells but no compound added.
(§5) d. Add 100 μl of 2× drug dilution to each well in a concentration shown in the plate layout above. At the same time, add 100 μl of media into the control wells (wells B10 to B12). Total volume is 200 μl/well.
(§6) e. Incubate four (4) days at 37° C., 5% CO2 in a humidified incubator.
(§7) f. Add 20 μl Alamar Blue reagent to each well.
(§8) g. Incubate for four (4) hours at 37° C., 5% CO2 in a humidified incubator.
(§9) h. Record fluorescence at an excitation wavelength of 544 nm and emission wavelength of 590 nm using a microplate reader.
(§10) In the assays, cells are cultured with a test compound for approximately four days, the dye is then added to the cells and fluorescence of […] dye is detected after approximately four hours. Different types of cells can be utilized in the assays (e.g., HCT-116 human colorectal carcinoma cells, PC-3 human prostatic cancer cells, MDA-MB231 human breast cancer cells, K-562 human chronic myelogenous leukemia (CML) cells, MiaPaca human pancreatic carcinoma cells, MV-4 human acute myeloid leukemia cells, and BxPC3 human pancreatic adenocarcinoma cells).

[3] = test system: MV-4-11; experiment: Alamar Blue cell proliferation assay, MV-4-11; type: cell-based; conditions: Homo sapiens, MV4-11
Description: as §1, §2, §3, §4, §5, §6, §7, §8, §9, §10

[4] = test system: MDA-MB231 human breast cancer cells; experiment: Alamar Blue cell proliferation assay, MDA-MB231; type: cell-based; conditions: MDA-MB-231, read-out: MDAMB231 IC50
Description: as §1, §2, §3, §4, §5, §6, §7, §8, §9, §10

[5] = test system: MiaPaca human pancreatic carcinoma cells; experiment: Alamar Blue cell proliferation assay, MiaPaCa; type: cell-based; conditions: MIA PaCa-2
Description: as §1, §2, §3, §4, §5, §6, §7, §8, §9, §10

[6] = test system: PC-3 human prostatic cancer cells; experiment: Alamar Blue cell proliferation assay, PC3; type: cell-based
Description: as §1, §2, §3, §4, §5, §6, §7, §8, §9, §10

[7] = target: T1, recombinant human CK2 (Homo sapiens, UniProt P68400); experiment: cell-free CK2 assay; type: biochemical
T1 construct: purchased Upstate
T1 sequence (P68400 whole entry): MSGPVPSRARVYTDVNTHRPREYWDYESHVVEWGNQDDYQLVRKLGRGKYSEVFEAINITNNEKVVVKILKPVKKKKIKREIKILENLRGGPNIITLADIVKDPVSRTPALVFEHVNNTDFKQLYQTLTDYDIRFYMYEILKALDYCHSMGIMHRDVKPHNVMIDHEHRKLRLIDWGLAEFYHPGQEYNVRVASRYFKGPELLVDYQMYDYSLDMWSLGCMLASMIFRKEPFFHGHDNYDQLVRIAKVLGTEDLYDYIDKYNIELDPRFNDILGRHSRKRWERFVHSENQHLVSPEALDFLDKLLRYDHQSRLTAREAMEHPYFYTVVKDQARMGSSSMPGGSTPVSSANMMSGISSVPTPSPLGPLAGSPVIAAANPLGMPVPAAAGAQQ
T1 sequence (P67870 whole entry partner): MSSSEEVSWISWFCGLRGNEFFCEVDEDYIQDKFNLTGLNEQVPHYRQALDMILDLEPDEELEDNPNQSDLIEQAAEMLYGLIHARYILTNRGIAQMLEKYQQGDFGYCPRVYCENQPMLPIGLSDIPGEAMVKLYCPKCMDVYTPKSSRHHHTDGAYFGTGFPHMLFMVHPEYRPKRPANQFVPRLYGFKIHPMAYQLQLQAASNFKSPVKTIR
Description: Modulatory activity of compounds described herein was assessed in vitro in cell-free CK2 assays by the following method.
Test compounds in aqueous solution were added at a volume of 10 microliters, to a reaction mixture comprising 10 microliters Assay Dilution Buffer (ADB; 20 mM MOPS, pH 7.2, 25 mM beta-glycerolphosphate, 5 mM EGTA, 1 mM sodium orthovanadate and 1 mM dithiothreitol), 10 microliters of substrate peptide (RRRDDDSDDD, dissolved in ADB at a concentration of 1 mM), 10 microliters of recombinant human CK2 (25 ng dissolved in ADB; Upstate). Reactions were initiated by the addition of 10 microliters of ATP Solution (90% 75 mM MgCl2, 75 micromolar ATP dissolved in ADB; 10% [γ-^33P]ATP (stock 1 mCi/100 μl; 3000 Ci/mmol (Perkin Elmer) and maintained for 10 minutes at 30 degrees C. The reactions were quenched with 100 microliters of 0.75% phosphoric acid, then transferred to and filtered through a phosphocellulose filter plate (Millipore). After washing each well 5 times with 0.75% phosphoric acid, the plate was dried under vacuum for 5 min and, following the addition of 15 ul of scintilation fluid to each well, the residual radioactivity was measured using a Wallac luminescence counter.

[8] = target: recombinant human PIM2 (Homo sapiens, UniProt Q9P1W9); experiment: PIM-2 kinase assay; type: biochemical
Sequence of recombinant human PIM2 (Q9P1W9 whole entry): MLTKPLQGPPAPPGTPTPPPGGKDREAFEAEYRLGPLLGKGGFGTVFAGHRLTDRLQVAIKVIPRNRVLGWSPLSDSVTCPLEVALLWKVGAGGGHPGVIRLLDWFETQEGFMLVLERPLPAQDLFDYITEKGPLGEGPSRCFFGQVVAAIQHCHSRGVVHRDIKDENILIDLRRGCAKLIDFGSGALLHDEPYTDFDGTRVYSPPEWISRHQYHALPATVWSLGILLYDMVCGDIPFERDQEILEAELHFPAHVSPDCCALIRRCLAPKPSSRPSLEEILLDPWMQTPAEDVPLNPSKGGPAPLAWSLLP
Description: Test compounds dissolved and diluted in DMSO (2 μl) were added to a reaction mixture comprising 10 μl of 5× Reaction Buffer (40 mM MOPS pH 7.0, 5 mM EDTA), 10 μl of recombinant human PIM2 solution (4 ng PIM-2 dissolved in dilution buffer (20 mM MOPS pH 7.0; EDTA 1 mM; 5% Glycerol; 0.01% Brij 35; […]; […] 2-mercaptoethanol; 1 mg/ml BSA)) and 8 ul of water. Reactions were initiated by the addition of 10 ul of ATP Solution ([…] (15 mM MgCl2; 75 uM ATP) 1% ([γ-33P]ATP: Stock 1 mCi/100 μl; 3000 Ci/mmol (Perkin Elmer)) and 10 ul of substrate peptide solution (RSRSSYPAGT, dissolved in water at a concentration of 1 mM), Reactions were maintained for 10 min at 30° C. The reactions were quenched with 100 ul of 0.75% Phosphoric acid, then transferred to and filtered through a Phosphocellulose filter plate (Millipore, MSPH-N6B-50). After washing each well 4 times with 0.75% Phosphoric acid, scintillation fluid (20 uL) was added to each well and the residual radioactivity was measured using a Wallac luminescence counter.

[9] = test system: BxPC3 human pancreatic adenocarcinoma cells; experiment: Alamar Blue cell proliferation assay, BxPC3; type: cell-based; conditions: BXPC-3
Description: as §1, §2, §3, §4, §5, §6, §7, §8, §9, §10

[10] = test system: MDA-MB45; experiment: Alamar Blue cell proliferation assay, MDA-MB45; type: cell-based
Description: as §1, §2, §3, §4, §5, §6, §7, §8, §9, §10

[11] = test system: SUM-149PT; experiment: Alamar Blue cell proliferation assay, SUM-149PT; type: cell-based; conditions: Homo sapiens, SUM149PT
Description: as §1, §2, §3, §4, §5, §6, §7, §8, §9, §10

[12] = test system: leukemic cells from AML patients; conditions: cited from earlier work
[13] = test system: MV-4-11 (AML) xenograft; conditions: MV-4-11 (AML) xenograft model; cited from earlier work
[14] = test system: MOLM-13 (AML) xenograft; conditions: MOLM-13 (AML) xenograft model; cited from earlier work
[15] = 15 μM ATP, read-out: PIM1: IC50 (15 μM ATP)

Sequence of recombinant PIM-1 (P11309 whole entry): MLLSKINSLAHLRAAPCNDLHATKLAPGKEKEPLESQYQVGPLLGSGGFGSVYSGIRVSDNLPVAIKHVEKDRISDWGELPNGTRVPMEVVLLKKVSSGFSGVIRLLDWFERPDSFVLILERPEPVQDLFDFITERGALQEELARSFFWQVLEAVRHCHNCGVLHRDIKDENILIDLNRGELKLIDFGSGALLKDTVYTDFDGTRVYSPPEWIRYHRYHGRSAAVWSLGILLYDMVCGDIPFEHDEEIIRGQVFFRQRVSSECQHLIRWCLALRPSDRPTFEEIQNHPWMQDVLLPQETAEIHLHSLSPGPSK

Row | SMILES | inhibition at 0.5 µM [1] | pIC50 [1, 15] | pIC50 ([2]; K562, Table 4) | pIC50 ([3]; Table 4) | pIC50 [5] | pIC50 [6] | pIC50 ([1]; Table 5, read-out: PIM1 IC50) | pIC50 [7] | pIC50 [8] | pIC50 ([2]; K562, Table 5) | pIC50 ([3]; Table 5) | pIC50 [9] | pIC50 [10] | pIC50 [11] | also measured
1 | Fc1ccc(Nc2nc3cc(-c4nnn[nH]4)ccc3n3cccc23)cc1Cl | 50.5% | 6.30 | < 5.00 | 5.92 | < 5.00 |  |  |  |  |  |  |  |  |  | pIC50 [4]: < 5.00
2 | Clc1ccc(Nc2nc3cc(-c4nnn[nH]4)ccc3n3cccc23)cc1 | 57.1% | 6.24 | < 5.00 | < 5.00 | < 5.00 |  |  |  |  |  |  |  |  |  | pIC50 [4]: < 5.00
3 | O=C(O)c1ccc2c(c1)nc(Nc1ccc(F)c(Cl)c1)c1cccn12 | 91.4% | 7.15 | 4.97 | 5.16 | < 5.00 | < 5.00 |  |  |  |  |  |  |  |  | pIC50 [4]: 4.92
4 | CN(c1ccccc1)c1nc2cc(-c3nnn[nH]3)ccc2n2cccc12 | 15.3% |  | < 5.00 | < 5.00 | < 5.00 | < 5.00 |  |  |  |  |  |  |  |  | 
5 | Fc1cccc(Nc2nc3cc(-c4nnn[nH]4)ccc3n3cccc23)c1 | 70% | 6.54 | < 5.00 | < 5.00 | < 5.00 | < 5.00 |  |  |  |  |  |  |  |  | 
6 | CN(c1ccccc1F)c1nc2cc(-c3nnn[nH]3)ccc2n2cccc12 | 51.4% | 6.11 | < 5.00 | < 5.00 | < 5.00 | < 5.00 |  |  |  |  |  |  |  |  | 
7 | N#Cc1ccc2c(c1)nc(NCCN1CCCC1)c1cccn12 | 10.3% |  | 5.26 | 5.52 | 5.91 | 5.02 |  |  |  |  |  |  |  |  | 
8 | CN(C)CCNc1nc2cc(C#N)ccc2n2cccc12 | 20.1% |  | 5.28 | 5.56 | 5.89 | 5.08 |  |  |  |  |  |  |  |  | 
9 | O=C(O)c1ccc2c(c1)nc(Nc1cc(F)cc(Cl)c1)c1cccn12 | 83.9% | 6.92 | < 5.00 | 5.07 | < 5.00 | < 5.00 |  |  |  |  |  |  |  |  | 
10 | O=C(O)c1ccc2c(c1)nc(NCCn1cccc1)c1cccn12 | 50.1% | 6.26 | < 5.00 | < 5.00 | < 5.00 | < 5.00 |  |  |  |  |  |  |  |  | 
11 | O=C(O)c1ccc2c(c1)nc(NCC(F)(F)F)c1cccn12 | 52.9% | 6.38 | < 5.00 | < 5.00 | < 5.00 | < 4.52 |  |  |  |  |  |  |  |  | pIC50 [4]: < 5.00
12 | O=C(NC1CC1)c1cccc2c1nc(Nc1ccccc1F)c1cccn12 |  |  |  |  |  |  | > 7.00 | > 6.00 | > 6.00 | < 5.00 | > 5.00 | < 4.52 | 4.92 | > 5.00 | 
13 | CN(C)C[C@@H]1CCn2cc(c3ccccc32)C2=C(C(=O)NC2=O)c2cn(c3ccccc23)CCO1 [Ly5333′531] |  |  |  |  |  |  |  |  |  |  |  |  |  |  | effect on cell growth and cell death [12]: suppressed cell growth and induced cell death
14 | CN1CCC(CNc2ccc3ncc(-c4cccc(OC(F)(F)F)c4)n3n2)CC1 [SGI-1776] |  |  |  |  |  |  |  |  |  |  |  |  |  |  | tumor regression [13]: significant tumor regression; tumor regression [14]: significant tumor regression

Now from value to molecule, other results behind:

Row | inhibition at 0.5 µM [1] | pIC50 [1, 15] | pIC50 ([2]; K562, Table 4) | pIC50 ([3]; Table 4) | pIC50 [5] | pIC50 [6] | pIC50 ([1]; Table 5, read-out: PIM1 IC50) | pIC50 [7] | pIC50 [8] | pIC50 ([2]; K562, Table 5) | pIC50 ([3]; Table 5) | pIC50 [9] | pIC50 [10] | SMILES | pIC50 [11] | also measured
15 |  |  |  |  |  |  | > 7.00 | > 7.00 | > 7.00 | < 4.52 | > 5.30 | < 4.52 | 4.82 | c1ccc(Nc2nc3c(-c4nnc[nH]4)cccc3n3cccc23)cc1 | < 4.52 | 
16 |  |  |  |  |  |  | > 7.00 | > 7.00 | > 7.00 | > 5.00 | > 5.30 | < 4.52 | 4.55 | Fc1ccccc1Nc1nc2c(-c3nnc[nH]3)cccc2n2cccc12 | 4.64 | 
17 |  |  |  |  |  |  | > 7.00 | > 7.00 | > 7.00 | > 5.00 | > 5.30 | 4.99 | 4.80 | Fc1ccc(Nc2nc3c(-c4nnc[nH]4)cccc3n3cccc23)c(F)c1 | 4.63 | 
18 |  |  |  |  |  |  | > 7.00 | > 7.00 | > 7.00 | < 5.00 | > 5.30 | ≤ 4.52 | 4.80 | Clc1cccc(Nc2nc3c(-c4nnc[nH]4)cccc3n3cccc23)c1 | 4.68 | 
19 |  |  |  |  |  |  | > 7.00 | > 6.00 | > 7.00 | < 5.00 | > 5.30 | ≤ 4.52 | 4.55 | Oc1cccc(Nc2nc3c(-c4nnc[nH]4)cccc3n3cccc23)c1 | < 4.52 | 
20 |  |  |  |  |  |  |  | > 7.00 | > 7.00 | > 5.00 | > 6.00 | 4.82 | > 5.30 | Fc1ccccc1Nc1nc2c(-c3nnc[nH]3)cccc2n2cncc12 | > 5.00 | 
